According to PubChem BioAssay (NCI):
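Growth conditions: 96-well plates. Treatment: test compound, 48 hours, 5 concentrations. Analysis: linear interpolation between bracketing concentrations; unreached endpoints set to highest concentration. The concentration for 50% growth inhibition is given as GI50. The concentration for full growth arrest is given as TGI.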

Assays:
Experiment in all cases: NCI-60 cell line screen, 48 h
[1] = test system: HS 578T breast
[2] = test system: KM12 colon
[3] = test system: SW-620 colon
[4] = test system: SK-MEL-28 melanoma
[5] = test system: MDA-MB-231 breast
[6] = test system: MDA-MB-435
[7] = test system: NCI-H226 lung
[8] = test system: M14 melanoma
[9] = test system: SF-268 CNS
[10] = test system: SN12C renal
[11] = test system: SR leukemia
[12] = test system: PC-3 prostate
[13] = test system: OVCAR-3 ovarian
[14] = test system: UO-31 renal
[15] = test system: MCF7 breast
[16] = test system: TK-10 renal
[17] = test system: A498 renal
[18] = test system: OVCAR-8 ovarian
[19] = test system: BT-549 breast
[20] = test system: NCI/ADR-RES ovarian
[21] = test system: EKVX NSCLC
[22] = test system: SK-MEL-5 melanoma
[23] = test system: ACHN renal
[24] = test system: NCI-H23 lung
[25] = test system: MALME-3M melanoma
[26] = test system: LOX IMVI melanoma
[27] = test system: HL-60(TB) leukemia

## O=C(Nc1cc(Cl)ccc1O)c1cccc(NC2=C(Cl)C(=O)N(Cc3ccccc3)C2=O)c1
[1]
  GI50: 20.9 µM
  TGI: 49.9 µM
[2]
  GI50: 21.4 µM
  TGI: 52 µM
[3]
  GI50: 21.3 µM
  TGI: 49.9 µM
[4]
  GI50: 42.4 µM
  TGI: > 100 µM
[5]
  GI50: 16.8 µM
  TGI: 40.3 µM
[6]
  GI50: 18.7 µM
  TGI: 38.6 µM
[7]
  GI50: 17.4 µM
  TGI: 36.6 µM
[8]
  GI50: 17.8 µM
  TGI: 36.7 µM
[9]
  GI50: 18.5 µM
  TGI: 38.2 µM
[10]
  GI50: 16 µM
  TGI: 33.6 µM
[11]
  GI50: 4.8 µM
  TGI: 22.8 µM
[12]
  GI50: 19.2 µM
  TGI: 46.1 µM
[13]
  GI50: 23.4 µM
  TGI: 54.4 µM
[14]
  GI50: 38.3 µM
  TGI: > 100 µM
[15]
  GI50: 13.3 µM
  TGI: 36.9 µM
[16]
  GI50: 37.3 µM
  TGI: 95.5 µM
[17]
  GI50: 25.8 µM
  TGI: > 100 µM
[18]
  GI50: 14.5 µM
  TGI: 38.8 µM
[19]
  GI50: 26.7 µM
  TGI: 80.5 µM
[20]
  GI50: 20.7 µM
  TGI: 43.4 µM
[21]
  GI50: > 100 µM
  TGI: > 100 µM
[22]
  GI50: 17 µM
  TGI: 31.5 µM
[23]
  GI50: 35.6 µM
  TGI: > 100 µM
[24]
  GI50: 16.1 µM
  TGI: 33.6 µM
[25]
  GI50: 30.5 µM
  TGI: 86.4 µM
[26]
  GI50: 15.7 µM
  TGI: 32.1 µM
[27]
  GI50: 15.9 µM
  TGI: 38.7 µM
